Reference: US20220249463A1, “METHODS OF ALTERING CARDIAC REMODELING USING COMPOUNDS THAT PROMOTE GLUCOSE OXIDATION” (IMBRIA PHARMACEUTICALS, INC., priority 2019, published 2022)

Assay: Stability of CV-8972 in aqueous solution at different concentrations and pH
Type: physicochemical
Description: The stability of CV-8972 was analyzed. Aqueous samples containing CV-8972 at different concentrations and pH were incubated for various periods and analyzed.
Form A of CV-8972 were analyzed for stability in aqueous solution. Aqueous samples containing CV-8972 at different concentrations and pH were incubated for various periods and analyzed.

[1] = 289-MBA-15-A 2 mg/mL pH 6 (Form B), 22 hrs, pH 6.7
[2] = 289-MBA-15-A 2 mg/mL pH 7 (Form B), 0 hrs, pH 6.5
[3] = 289-MBA-15-A 2 mg/mL pH 7 (Form B), 1 hrs, pH 6.6
[4] = 289-MBA-15-A 2 mg/mL pH 7 (Form B), 4 hrs, pH 6.5
[5] = 289-MBA-15-A 10 mg/mL pH 6 (Form B), 0 hrs, pH 6
[6] = 289-MBA-15-A 10 mg/mL pH 6 (Form B), 1 hrs, pH 6.1
[7] = 289-MBA-15-A 10 mg/mL pH 6 (Form B), 4 hrs, pH 6
[8] = 289-MBA-15-A 10 mg/mL pH 6 (Form B), 6 hrs, pH 5.9
[9] = 289-MBA-15-A 10 mg/mL pH 6 (Form B), 22 hrs, pH 5.9
[10] = 289-MBA-15-A 10 mg/mL pH 7 (Form B), 0 hrs, pH 7.4
[11] = 289-MBA-15-A 10 mg/mL pH 7 (Form B), 1 hrs, pH 7.4
[12] = 289-MBA-15-A 10 mg/mL pH 7 (Form B), 4 hrs, pH 7.4
[13] = 289-MBA-15-A 10 mg/mL pH 7 (Form B), 6 hrs, pH 7.3
[14] = Form A, aqueous, 4.2 mg/mL, Initial pH = 2.3, 0 hrs
[15] = Form A, aqueous, 4.2 mg/mL, Initial pH = 2.3, 1 hrs
[16] = Form A, aqueous, 4.2 mg/mL, Initial pH = 2.3, 2 hrs
[17] = Form A, aqueous, 4.2 mg/mL, Initial pH = 2.3, 6 hrs
[18] = Form A, aqueous, 12.5 mg/mL, Initial pH = 2.1, 0 hrs
[19] = Form A, aqueous, 12.5 mg/mL, Initial pH = 2.1, 1 hrs
[20] = Form A, aqueous, 12.5 mg/mL, Initial pH = 2.1, 2 hrs
[21] = Form A, aqueous, 12.5 mg/mL, Initial pH = 2.1, 6 hrs
[22] = Form A, aqueous, 21 mg/mL, Initial pH = 2.0, 0 hrs
[23] = Form A, aqueous, 21 mg/mL, Initial pH = 2.0, 1 hrs
[24] = Form A, aqueous, 21 mg/mL, Initial pH = 2.0, 2 hrs
[25] = Form A, aqueous, 21 mg/mL, Initial pH = 2.0, 6 hrs

- Retention Time 2.2 [1]: 7.72
- Retention Time 2.6 [1]: 1.13
- Retention Time 4.2 [1]: 0.86
- Retention Time 4.7 [1]: 1.14
- Retention Time 5.6 [1]: 89.15
- Retention Time 2.2 [2]: 1.62
- Retention Time 4.2 [2]: 0.9
- Retention Time 5.6 [2]: 97.48
- Decrease in purity of CV-8972 between time points [3]: 2.02
- Retention Time 2.2 [3]: 3.16
- Retention Time 4.2 [3]: 0.89
- Retention Time 4.7 [3]: 0.49
- Retention Time 5.6 [3]: 95.46
- Decrease in purity of CV-8972 between time points [4]: 1.54
- Retention Time 2.2 [4]: 4.27
- Retention Time 2.6 [4]: 0.53
- Retention Time 4.2 [4]: 0.66
- Retention Time 4.7 [4]: 0.62
- Retention Time 5.6 [4]: 93.92
- Retention Time 2.2 [5]: 3.3
- Retention Time 2.6 [5]: 0.6
- Retention Time 4.2 [5]: 0.26
- Retention Time 4.7 [5]: 0.48
- Retention Time 5.6 [5]: 95.36
- Decrease in purity of CV-8972 between time points [6]: 0.55
- Retention Time 2.2 [6]: 3.76
- Retention Time 2.6 [6]: 0.65
- Retention Time 4.2 [6]: 0.25
- Retention Time 4.7 [6]: 0.53
- Retention Time 5.6 [6]: 94.81
- Decrease in purity of CV-8972 between time points [7]: 0.12
- Retention Time 2.2 [7]: 3.97
- Retention Time 2.6 [7]: 0.59
- Retention Time 4.2 [7]: 0.19
- Retention Time 4.7 [7]: 0.56
- Retention Time 5.6 [7]: 94.69
- Decrease in purity of CV-8972 between time points [8]: 0.3
- Retention Time 2.2 [8]: 4.3
- Retention Time 2.6 [8]: 0.54
- Retention Time 4.2 [8]: 0.17
- Retention Time 4.7 [8]: 0.6
- Retention Time 5.6 [8]: 94.39
- Decrease in purity of CV-8972 between time points [9]: 0.46
- Retention Time 2.2 [9]: 4.53
- Retention Time 2.6 [9]: 0.69
- Retention Time 4.2 [9]: 0.19
- Retention Time 4.7 [9]: 0.65
- Retention Time 5.6 [9]: 93.93
- Retention Time 2.2 [10]: 6.2
- Retention Time 2.6 [10]: 1.16
- Retention Time 4.2 [10]: 0.27
- Retention Time 4.7 [10]: 0.87
- Retention Time 5.6 [10]: 91.5
- Decrease in purity of CV-8972 between time points [11]: 5.32
- Retention Time 2.2 [11]: 10.47
- Retention Time 2.6 [11]: 1.65
- Retention Time 4.2 [11]: 0.25
- Retention Time 4.7 [11]: 1.44
- Retention Time 5.6 [11]: 86.18
- Decrease in purity of CV-8972 between time points [12]: 3.82
- Retention Time 2.2 [12]: 13.64
- Retention Time 2.6 [12]: 1.93
- Retention Time 4.2 [12]: 0.19
- Retention Time 4.7 [12]: 1.89
- Retention Time 5.6 [12]: 82.36
- Decrease in purity of CV-8972 between time points [13]: 2.99
- Retention Time 2.2 [13]: 15.66
- Retention Time 2.6 [13]: 2.57
- Retention Time 4.2 [13]: 0.2
- Retention Time 4.7 [13]: 0.2
- Retention Time 5.6 [13]: 79.37
- Retention Time 3.9 [14]: 5.35
- Retention Time 5.4 [14]: 94.65
- % change from t0 of RT 5.4 [15]: 1.41%
- Retention Time 3.9 [15]: 4.02
- Retention Time 5.4 [15]: 95.98
- % change from t0 of RT 5.4 [16]: −3.66%
- Amount of peak at retention time 1.9 [16]: 3.72
- Retention Time 3.9 [16]: 5.09
- Retention Time 5.4 [16]: 91.19
- % change from t0 of RT 5.4 [17]: −10.21%
- Amount of peak at retention time 1.9 [17]: 9.71
- Retention Time 3.9 [17]: 5.3
- Retention Time 5.4 [17]: 84.99
- Retention Time 3.9 [18]: 1.79
- Retention Time 5.4 [18]: 98.21
- % change from t0 of RT 5.4 [19]: −1.02%
- Amount of peak at retention time 1.9 [19]: 1.38
- Retention Time 3.9 [19]: 1.41
- Retention Time 5.4 [19]: 97.21
- % change from t0 of RT 5.4 [20]: −2.35%
- Amount of peak at retention time 1.9 [20]: 2.43
- Retention Time 3.9 [20]: 1.67
- Retention Time 5.4 [20]: 95.9
- % change from t0 of RT 5.4 [21]: −8.79%
- Retention Time 2.2 [21]: 1.04
- Retention Time 3.9 [21]: 1.74
- Retention Time 5.4 [21]: 89.58
- Retention Time 3.9 [22]: 1.12
- Retention Time 5.4 [22]: 98.88
- % change from t0 of RT 5.4 [23]: −0.86%
- Amount of peak at retention time 1.9 [23]: 1.03
- Retention Time 3.9 [23]: 0.94
- Retention Time 5.4 [23]: 98.03
- % change from t0 of RT 5.4 [24]: −1.79%
- Amount of peak at retention time 1.9 [24]: 1.9
- Retention Time 3.9 [24]: 1
- Retention Time 5.4 [24]: 97.11
- % change from t0 of RT 5.4 [25]: −6.78%
- Retention Time 2.2 [25]: 0.83
- Retention Time 3.9 [25]: 0.96
- Retention Time 5.4 [25]: 92.18
SMILES: COc1ccc(CN2CCN(CCOC(=O)c3cccnc3)CC2)c(OC)c1OC [CV-8972, 2-(4-(2,3,4-trimethoxybenzyl)piperazin-1-yl)ethyl nicotinate]
